{
  "source": "patent US20070213403A1",
  "about": "“TAMOXIFEN RESPONSE IN PRE-AND POST[…] CANCER PATIENTS” (priority 2004, published 2007)",
  "key": {"[1]": {"tested_on": "postmenopausal patients with stage II invasive breast cancer", "assay": "Randomised trial of two years of tamoxifen (40 mg/day) vs control in postmenopausal patients", "assay_type": "in vivo, human", "source_text": "The patients included were enrolled in a multi-center clinical trial at Umea University Hospital, Sweden, during 1980-1987 (Trial II) included in the Oxford meta-analysis. The inclusion criteria were postmenopausal patients (>55 years) with stage II (pT1, pN1, pM0, pT2, pN0, pM0, pT2, […], pM0) invasive breast cancer. For patients older than 70 years, stage II and stage III breast cancer patients were included. Patients were operated with modified radical mastecomy. The hormone receptor level was not determined at time of randomization. Patients were randomized to control or tamoxifen treatment (40 mg/day) for two years by the Regional Oncologic Center and oral informed consent was registered on admission to the Oncological Clinic. The study was approved by the Ethical Committee at the Umea university 1980 as well as 2002 (modification regarding molecular markers used in tissue micro array). The median age was 66.5 years (55-75 years) at inclusion. The median follow-up time was 18 years (range 15-22 years) for surviving patients.\n(§1) 3-4 um sections of the paraffin embedded tissue arrays were dried, deparaffinized, rehydrated and microwave treated for 5+5 min in a citrate buffer (pH 6.0) before being processed in an automatic immunohistochemistry staining machine according to standard procedures (TechMate500, Dako, Denmark) using a polyclonal VEGF (A-20) antibody diluted 1:400 recognizing VEGF 165, 189 and 121 (Santa Cruz, Calif., USA) and a monoclonal VEGFR2 antibody recognizing VEGFR2/KDR diluted 1:1000 (Santa Cruz, Calif., USA). Normal human kidneys were used as positive controls for VEGF-A and for VEGFR2, human aortic endothelium served as positive controls. VEGF-A was previously validated using an ELISA-based method (LR). The cytoplasmatic staining intensity was evaluated semi-quantitatively using a classification from 0-3, representing lack of staining (0), low staining intensity (1), intermediate staining intensity (2) and high staining intensity (3). Only invasive tumor cells were evaluated. In survival analyses, high staining intensity (grade 3) was compared with the other grades (0, 1, 2) for both VEGF-A and VEGFR2 in premenopausal patients. In postmenopausal patients lack of staining was compared with staining of any intensity.\nER and PR were determined by immunohistochemistry in a tissue microarray. For this purpose, the Ventana Benchmark system (Ventana Medical Systems Inc., AZ, USA) with prediluted antibodies (Anti-ER Clone 6F11 and Anti-PgR Clone 16) was used. In line with the clinically established cut-off used for hormone receptor assessment, tumors with more than 10% positively staining nuclei were considered positive. In addition, the fractions of positive nuclei were quantified.\n(§2) For survival analyses all calculations were done according to the intention to treat rule. Recurrence-free survival (RFS) considered distant, local and regional metastasis as primary event as well as breast cancer death, whereas contralateral breast cancer was not included. The Kaplan-Meier method was used to estimate recurrence-free and breast cancer survival and the log-rank test to compare survival in different strata. Cox proportional hazards model was used for estimation of univariate hazard ratios (HRs) and multivariate analysis."}, "[2]": {"tested_on": "premenopausal patients with stage II invasive breast cancer", "assay": "Randomised trial of two years of adjuvant tamoxifen vs control in premenopausal patients", "assay_type": "in vivo, human", "source_text": "Premenopausal patients or patients under 50 years with stage II (pT2 N0 M0, pT1 N1 M0 and pT2, N1 M0) invasive breast cancer were enrolled in a clinical trial between 1986 -1991 and randomized to control (n=288) or two years of tamoxifen (n=276). All patients were radically operated by modified radical mastectomy or breast conserving surgery with axillary lymph node dissection (level one and two). After breast conserving surgery, radiotherapy (50 Gy) was given to the breast and in patients with axillary lymph node metastases locoregional radiotherapy was delivered. Patients were included irrespective of hormone receptor status. Randomization was performed by the Regional Oncologic Centre and oral informed consent registered for all patients. The study was approved by the ethical committee at Lund and Linkoping Universities.\nThe patients were followed until 5 years with annual mammogram and physical examination and then within the national program by screening mammogram every 18th month.The median duration of follow-up for patients without breast cancer event was 13.9 years (95% Cl: 13.6-14.3). The median follow-up time was the same in the two treatment arms. • 2. Postmenopausal Patients\nas §1\nER and PR were determined by immunohistochemistry in a tissue microarray. For this purpose, the Ventana Benchmark system (Ventana Medical Systems Inc., AZ, USA) with prediluted antibodies (Anti-ER Clone 6F11 and Anti-PgR Clone 16) was used. In line with the clinically established cut-off used for hormone receptor assessment, tumors with more than 10% positively staining nuclei were considered positive. In addition, the fractions of positive nuclei were quantified. […]\nas §2"}, "[3]": {"tested_on": "hormone receptor positive breast cancer", "details": "adjuvant tamoxifen for five years; cited from earlier work"}, "[4]": {"details": "Cox model with VEGFR2 status and interaction-variable, ER positive patients"}, "[5]": {"details": "Cox model, ER positive patients"}, "[6]": {"details": "Cox multivariate model with VEGF-A status and interaction-variable, ER positive patients"}, "[7]": {"details": "Cox multivariate model, ER positive patients"}, "[8]": {"details": "ER positive patients, univariate"}, "[9]": {"details": "ER positive, HER2 low tumors, univariate"}},
  "data": [
    {"smiles": "CC/C(=C(\\c1ccccc1)c1ccc(OCCN(C)C)cc1)c1ccccc1", "note": "[tamoxifen]", "values": [
      {"measurement": "HR of interaction-variable VEGFR2 status x tamoxifen treatment, OS", "setting": "[1]; Cox model, 10 years, ER positive >90% stained nuclei", "value": 0.2},
      {"measurement": "HR, OS at 10 years (tamoxifen vs control)", "setting": "[1]; ER positive >90% stained nuclei, VEGF-A negative tumors", "value": 0.3},
      {"measurement": "HR, OS at 10 years (tamoxifen vs control)", "setting": "[1]; ER positive >90% stained nuclei, VEGF-A positive tumors", "value": 0.8},
      {"measurement": "HR, OS at 10 years (tamoxifen vs control)", "setting": "[1]; ER positive >90% stained nuclei, VEGFR2 negative tumors", "value": 0.2},
      {"measurement": "HR, OS at 10 years (tamoxifen vs control)", "setting": "[1]; ER positive >90% stained nuclei, VEGFR2 positive tumors", "value": 0.9},
      {"measurement": "effect on overall survival of tamoxifen treatment", "setting": "[1]; all patients irrespective of hormone receptor content", "value": "non-significant"},
      {"measurement": "tamoxifen response (overall survival)", "setting": "[1]; patients with >90% ER positive cells, 10 years", "value": "notable at 10-years, however not strictly significant"},
      {"measurement": "absolute risk reduction (recurrence)", "setting": "[2]; 324 ER positive patients, two years of tamoxifen vs control", "value": 15, "unit": "%"},
      {"measurement": "HR, OS, Randomization Tam v control", "setting": "[2]; [4]", "value": 0.6},
      {"measurement": "HR, RFS, Randomization Tam v control", "setting": "[2]; [4]", "value": 0.6},
      {"measurement": "HR, OS, interaction-variable tamoxifen treatment x VEGFR2 status", "setting": "[2]; [5]", "value": 5.2},
      {"measurement": "HR, RFS, interaction-variable tamoxifen treatment x VEGFR2 status", "setting": "[2]; [5]", "value": 2.2},
      {"measurement": "HR, OS, Randomization Tam v control", "setting": "[2]; [6]", "value": 1.1},
      {"measurement": "HR, RFS, Randomization Tam v control", "setting": "[2]; [6]", "value": 0.5},
      {"measurement": "HR, OS, interaction-variable tamoxifen treatment x VEGF-A status", "setting": "[2]; [7]", "value": 0.5},
      {"measurement": "HR, RFS, interaction-variable tamoxifen treatment x VEGF-A status", "setting": "[2]; [7]", "value": 1.5},
      {"measurement": "HR, OS (tamoxifen vs control)", "setting": "[2]; ER negative disease", "value": 0.9},
      {"measurement": "HR, RFS (tamoxifen vs control)", "setting": "[2]; ER negative disease", "value": 0.9},
      {"measurement": "recurrence rate", "setting": "[2]; ER positive patients, tamoxifen treated group", "value": 36, "unit": "%"},
      {"measurement": "HR, OS (tamoxifen vs control)", "setting": "[2]; [8]", "value": 0.8},
      {"measurement": "HR, RFS (tamoxifen vs control)", "setting": "[2]; [8]", "value": 0.6},
      {"measurement": "HR, OS (tamoxifen vs control)", "setting": "[2]; [9]", "value": 0.8},
      {"measurement": "HR, RFS (tamoxifen vs control)", "setting": "[2]; [9]", "value": 0.6},
      {"measurement": "HR, OS (tamoxifen vs control)", "setting": "[2]; ER positive, HER 2 overexpressing tumor, univariate", "value": 0.9},
      {"measurement": "HR, RFS (tamoxifen vs control)", "setting": "[2]; ER positive, HER2 overexpression, univariate", "value": 0.7},
      {"measurement": "HR, RFS (tamoxifen vs control)", "setting": "[2]; ER positive, VEGF grade 3 tumors, univariate", "value": 0.8},
      {"measurement": "HR, RFS (tamoxifen vs control)", "setting": "[2]; ER positive, VEGF-A grade 0-2 tumors, univariate", "value": 0.6},
      {"measurement": "HR, OS (tamoxifen vs control)", "setting": "[2]; ER positive, VEGFA grade 0-2 tumors, univariate", "value": 0.8},
      {"measurement": "HR, OS (tamoxifen vs control)", "setting": "[2]; ER positive, VEGFA grade 3 tumors, univariate", "value": 0.8},
      {"measurement": "HR, OS (tamoxifen vs control)", "setting": "[2]; ER positive, VEGFR2 3", "value": 3.4},
      {"measurement": "HR, RFS (tamoxifen vs control)", "setting": "[2]; ER positive, VEGFR2 grade 0, 1 or 2 staining intensity", "value": 0.6},
      {"measurement": "HR, OS (tamoxifen vs control)", "setting": "[2]; ER positive, VEGFR2 grade 0-2", "value": 0.7},
      {"measurement": "HR, RFS (tamoxifen vs control)", "setting": "[2]; ER positive, intense expression of VEGFR2 (grade 3)", "value": 1.4},
      {"measurement": "reduction of death", "setting": "[3]", "value": 28, "unit": "%"},
      {"measurement": "reduction of recurrence", "setting": "[3]", "value": 50, "unit": "%"}
    ]}
  ]
}
